Values quoted from earlier work in US10955416B2, “Compositions for detecting mutant anaplastic lymphoma kinase in human lung cancer” (CELL SIGNALING TECHNOLOGY, INC., priority 2006, dated 2021).

Tested on: lymphoma cells
Conditions: Marzec et al., Lab. Invest. 85(12): 1544-54 (2005); cited from earlier work

SMILES	apoptosis in lymphoma cells	proliferation in lymphoma cells
COc1cc2ncnc(Nc3ccc(O)cc3)c2cc1OC [WHI-131]	induce apoptosis	suppress proliferation
COc1cc2ncnc(Nc3ccc(O)c(Br)c3)c2cc1OC [WHI-154]	induce apoptosis	suppress proliferation
